Data on 18 molecules can be found in ChEMBL document CHEMBL5576125, “Discovery of Pyrazolopyrazines as Selective, Potent, and Mutant-Active MET Inhibitors with Intracranial Efficacy” (J Med Chem, 2024).

Data set [1] has as its target T1, Hepatocyte growth factor receptor (Homo sapiens, UniProt P08581, D1228N). Nature of the data set: Inhibition of MET D1228N mutant (unknown origin) transfected in mouse NIH3T3 cells incubated for 1 hr by In-Cell Western assay. The class given is cell-based.
A short description of data set [2]: Displacement of tracer 236 from N-terminal GST-tagged recombinant human MET exon 14 deletion mutant (956 to end residues) expressed in Sf9 insect cells incubated for 1 hr by TR-FRET assay. On the technique in general: In TR-FRET formats the signal depends on donor and acceptor labels being close together.
The target in data set [3] is T1, Hepatocyte growth factor receptor. As to the kind of experiment: Displacement of tracer 236 from N-terminal GST-tagged recombinant human MET D1228N mutant (956 to end residues) expressed in Sf9 insect cells incubated for 1 hr by TR-FRET assay.
Data set [4] deals with Hepatocyte growth factor receptor (Homo sapiens, UniProt P08581, F1200I). Nature of the data set: Displacement of tracer 236 from N-terminal GST-tagged recombinant human MET F1200I mutant (956 to end residues) expressed in Sf9 insect cells incubated for 1 hr by TR-FRET assay.
The nature of data set [5]: Displacement of tracer 236 from N-terminal GST-tagged recombinant human MET […] mutant (956 to end residues) expressed in Sf9 insect cells incubated for 1 hr by TR-FRET assay.
Data set [6] has as its target Hepatocyte growth factor receptor (Homo sapiens, UniProt P08581, Y1230H). Nature of the data set: Displacement of tracer 236 from N-terminal GST-tagged recombinant human MET Y1230H mutant (956 to end residues) expressed in Sf9 insect cells incubated for 1 hr by TR-FRET assay.
A short description of data set [7]: Metabolic stability in human hepatocytes assessed as clearance at 2 uM measured upto 120 mins by LC-MS/MS analysis. The class given is ADME, cell-based, Hepatocyte.
Data set [8] can be described thus: Metabolic stability in mouse hepatocytes assessed as clearance at 2 uM measured upto 120 mins by LC-MS/MS analysis. It is filed as ADME, cell-based, Hepatocyte.
The nature of data set [9]: Apparent permeability across apical to basolateral side in MDCKII-MDR1 cells at 1 uM incubated for 2 hrs in orbital shaker by LC-MS/MS analysis. The class given is ADME, cell-based, Canis lupus familiaris. As to conditions: dog, MDCK-MDR1.
Data set [10] can be described thus: Efflux ratio of apparent permeability across basolateral to apical over apical to basolateral side in MDCKII-MDR1 cells at 1 uM incubated for 2 hrs in orbital shaker by LC-MS/MS analysis. It is filed as ADME, cell-based, Canis lupus familiaris. The conditions noted are these: dog, MDCK-MDR1.
Data set [11] deals with Vascular endothelial growth factor receptor 2 (Homo sapiens, UniProt P35968). As to the kind of experiment: Inhibition of VEGFR-2 (unknown origin) by cell based assay. It is filed as toxicity.
Sequence of Vascular endothelial growth factor receptor 2 (P35968 whole entry): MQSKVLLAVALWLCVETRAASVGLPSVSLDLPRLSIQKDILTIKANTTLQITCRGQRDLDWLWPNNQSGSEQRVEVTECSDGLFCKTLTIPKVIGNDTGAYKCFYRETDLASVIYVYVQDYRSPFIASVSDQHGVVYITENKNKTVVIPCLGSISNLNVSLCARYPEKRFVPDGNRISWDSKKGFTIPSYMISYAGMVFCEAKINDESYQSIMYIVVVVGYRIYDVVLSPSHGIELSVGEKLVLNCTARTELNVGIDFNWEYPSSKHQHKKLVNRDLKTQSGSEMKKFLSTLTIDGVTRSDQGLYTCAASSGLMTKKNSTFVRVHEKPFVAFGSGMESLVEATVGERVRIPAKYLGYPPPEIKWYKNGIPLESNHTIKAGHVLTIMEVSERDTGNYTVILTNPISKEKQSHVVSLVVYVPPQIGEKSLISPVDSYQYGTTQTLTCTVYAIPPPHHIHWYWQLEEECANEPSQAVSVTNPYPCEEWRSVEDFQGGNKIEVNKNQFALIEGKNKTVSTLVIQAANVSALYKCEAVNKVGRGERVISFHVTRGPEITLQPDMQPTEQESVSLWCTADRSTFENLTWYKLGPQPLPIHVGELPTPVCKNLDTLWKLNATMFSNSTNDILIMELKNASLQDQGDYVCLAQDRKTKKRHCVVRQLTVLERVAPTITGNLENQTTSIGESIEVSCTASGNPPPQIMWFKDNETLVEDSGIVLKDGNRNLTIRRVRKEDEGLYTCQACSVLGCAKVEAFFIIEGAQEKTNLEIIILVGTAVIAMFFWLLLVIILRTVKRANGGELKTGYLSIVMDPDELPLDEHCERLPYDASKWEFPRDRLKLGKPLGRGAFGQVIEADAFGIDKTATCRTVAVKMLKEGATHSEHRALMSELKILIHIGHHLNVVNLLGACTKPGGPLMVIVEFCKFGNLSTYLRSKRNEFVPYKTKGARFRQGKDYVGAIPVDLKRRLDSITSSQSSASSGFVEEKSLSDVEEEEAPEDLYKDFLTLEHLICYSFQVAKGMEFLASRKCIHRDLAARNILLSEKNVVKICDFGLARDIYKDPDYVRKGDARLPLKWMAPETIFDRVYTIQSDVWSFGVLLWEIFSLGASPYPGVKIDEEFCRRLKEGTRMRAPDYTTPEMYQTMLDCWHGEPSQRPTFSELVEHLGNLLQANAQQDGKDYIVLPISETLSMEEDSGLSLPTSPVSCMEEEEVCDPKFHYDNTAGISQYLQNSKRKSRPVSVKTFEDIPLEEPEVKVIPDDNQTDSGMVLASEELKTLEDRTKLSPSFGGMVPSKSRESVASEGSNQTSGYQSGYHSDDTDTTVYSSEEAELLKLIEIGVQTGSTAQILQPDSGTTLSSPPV

As usually defined, the IC50 is the concentration that gives 50% inhibition. For orientation: Papp A→B means how fast a substance crosses the layer from the apical side. What is called efflux ratio is the permeability from basolateral to apical divided by that in the opposite direction, in the common usage.

Sequence of Hepatocyte growth factor receptor (Homo sapiens, UniProt P08581, Y1230H) (P08581 25-1390 Y1230H limits assumed): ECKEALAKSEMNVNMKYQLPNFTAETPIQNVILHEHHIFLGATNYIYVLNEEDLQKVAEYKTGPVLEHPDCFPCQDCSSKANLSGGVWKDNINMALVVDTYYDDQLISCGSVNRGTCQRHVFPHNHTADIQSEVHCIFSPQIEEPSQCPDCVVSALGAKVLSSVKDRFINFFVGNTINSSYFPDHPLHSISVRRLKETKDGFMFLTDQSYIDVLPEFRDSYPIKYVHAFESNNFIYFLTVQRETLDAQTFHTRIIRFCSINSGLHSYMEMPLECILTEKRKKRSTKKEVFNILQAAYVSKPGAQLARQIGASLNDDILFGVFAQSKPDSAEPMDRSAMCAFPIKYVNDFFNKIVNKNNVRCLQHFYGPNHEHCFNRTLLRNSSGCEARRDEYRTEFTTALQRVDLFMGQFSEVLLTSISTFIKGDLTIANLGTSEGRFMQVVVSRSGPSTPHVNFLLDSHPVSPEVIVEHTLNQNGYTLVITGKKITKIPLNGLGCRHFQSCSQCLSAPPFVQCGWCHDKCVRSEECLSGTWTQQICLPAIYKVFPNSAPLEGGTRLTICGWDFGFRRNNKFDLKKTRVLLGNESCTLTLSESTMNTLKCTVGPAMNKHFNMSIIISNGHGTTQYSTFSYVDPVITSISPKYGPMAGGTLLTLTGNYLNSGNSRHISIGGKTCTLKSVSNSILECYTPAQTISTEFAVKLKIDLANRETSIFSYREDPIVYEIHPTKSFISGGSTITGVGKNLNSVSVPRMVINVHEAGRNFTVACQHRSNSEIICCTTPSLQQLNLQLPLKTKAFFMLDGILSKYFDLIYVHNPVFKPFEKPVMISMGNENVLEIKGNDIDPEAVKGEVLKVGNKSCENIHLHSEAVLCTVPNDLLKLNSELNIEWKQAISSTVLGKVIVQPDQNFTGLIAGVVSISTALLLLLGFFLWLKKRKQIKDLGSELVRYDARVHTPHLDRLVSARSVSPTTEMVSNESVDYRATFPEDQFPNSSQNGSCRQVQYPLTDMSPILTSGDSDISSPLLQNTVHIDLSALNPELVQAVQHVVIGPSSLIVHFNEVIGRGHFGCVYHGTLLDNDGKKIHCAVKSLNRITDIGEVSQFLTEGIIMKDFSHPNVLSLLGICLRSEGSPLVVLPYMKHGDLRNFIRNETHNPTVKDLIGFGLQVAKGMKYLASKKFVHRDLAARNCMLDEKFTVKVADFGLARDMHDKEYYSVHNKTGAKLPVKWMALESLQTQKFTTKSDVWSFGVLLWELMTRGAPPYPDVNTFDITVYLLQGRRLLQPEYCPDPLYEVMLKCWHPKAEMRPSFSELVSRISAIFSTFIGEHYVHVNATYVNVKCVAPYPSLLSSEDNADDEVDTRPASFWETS
T1 sequence (P08581 25-1390 D1228N limits assumed): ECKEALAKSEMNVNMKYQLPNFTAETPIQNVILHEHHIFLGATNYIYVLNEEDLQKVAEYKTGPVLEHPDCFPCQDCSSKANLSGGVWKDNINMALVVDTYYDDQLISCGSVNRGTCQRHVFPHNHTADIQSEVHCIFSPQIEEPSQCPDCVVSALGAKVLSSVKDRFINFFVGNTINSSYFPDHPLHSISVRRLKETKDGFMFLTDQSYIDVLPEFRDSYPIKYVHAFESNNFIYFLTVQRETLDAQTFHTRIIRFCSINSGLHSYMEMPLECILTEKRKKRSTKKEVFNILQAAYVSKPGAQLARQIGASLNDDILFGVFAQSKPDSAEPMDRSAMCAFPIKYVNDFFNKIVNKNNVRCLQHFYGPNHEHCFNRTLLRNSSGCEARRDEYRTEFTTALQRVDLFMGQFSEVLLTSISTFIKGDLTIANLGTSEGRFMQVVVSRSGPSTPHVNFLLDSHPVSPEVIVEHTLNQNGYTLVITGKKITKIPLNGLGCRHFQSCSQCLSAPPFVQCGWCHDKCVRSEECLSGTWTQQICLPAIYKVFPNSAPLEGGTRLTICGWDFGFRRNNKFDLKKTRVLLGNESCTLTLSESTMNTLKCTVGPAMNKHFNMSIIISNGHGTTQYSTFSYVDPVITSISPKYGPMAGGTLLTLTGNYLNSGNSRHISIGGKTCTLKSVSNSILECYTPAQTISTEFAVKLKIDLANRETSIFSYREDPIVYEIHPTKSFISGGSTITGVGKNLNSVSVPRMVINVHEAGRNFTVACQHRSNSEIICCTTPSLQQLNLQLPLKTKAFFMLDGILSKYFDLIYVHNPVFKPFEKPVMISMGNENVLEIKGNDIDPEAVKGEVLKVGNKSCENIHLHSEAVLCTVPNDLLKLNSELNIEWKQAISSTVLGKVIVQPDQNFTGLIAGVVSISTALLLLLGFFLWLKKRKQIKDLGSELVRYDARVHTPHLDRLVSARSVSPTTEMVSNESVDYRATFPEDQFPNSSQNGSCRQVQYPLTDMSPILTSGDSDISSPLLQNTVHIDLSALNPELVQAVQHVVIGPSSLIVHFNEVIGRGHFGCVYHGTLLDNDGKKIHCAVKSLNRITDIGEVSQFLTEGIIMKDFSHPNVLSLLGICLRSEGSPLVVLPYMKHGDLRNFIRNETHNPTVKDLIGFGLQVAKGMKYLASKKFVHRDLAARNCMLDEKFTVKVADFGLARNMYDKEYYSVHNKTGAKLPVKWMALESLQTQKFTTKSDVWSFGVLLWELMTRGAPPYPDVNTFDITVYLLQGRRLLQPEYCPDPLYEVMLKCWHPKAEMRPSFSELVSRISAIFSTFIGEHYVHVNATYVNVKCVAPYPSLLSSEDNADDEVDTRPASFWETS

Consider `CC(C)N(c1cc(F)c(NC(=O)c2ccnn(-c3ccc(F)cc3)c2=O)cc1F)c1cccn2nccc12`, for which the IC50 worked out at 336 nM in [1]; 71 nM in data set [2]; 86 nM in data set [3]; 763 nM in data set [4]; 298 nM in [5]; 92 nM in data set [6].

With `COc1cc(N(c2cc(F)c(NC(=O)c3ccnn(-c4ccc(F)cn4)c3=O)cc2F)[C@H]2C[C@H](c3ccn(C)n3)C2)c2ccnn2c1`, the IC50 was determined as 22 nM in data set [1]; 16 nM in data set [2]; 11 nM in data set [3]; 54 nM in data set [4]; 32 nM in data set [5]; 17 nM in data set [6]. Besides, the CLhep predicted at 2 µM in data set [7] was 12 mL/min/kg; in data set [8] it was 38 mL/min/kg.

`Cn1ccc([C@H]2C[C@H](N(c3cc(F)c(NC(=O)c4ccnn(-c5ccc(F)cn5)c4=O)cc3F)c3cc(F)cn4nccc34)C2)n1`: the IC50 in data set [1] is 37 nM; in data set [2] it was 13 nM; in data set [3], 33 nM; in [4], 278 nM; in [5] it was 41 nM; in data set [6] it was 11 nM. Also, the figures for the CLhep predicted at 2 µM in [7] and in data set [8] were 3 mL/min/kg and 15 mL/min/kg, respectively. In data set [9], the Papp A→B at 2 h, 1 µM is 2 ×10⁻⁶ cm/s.

On to `Cn1ccc([C@H]2C[C@H](N(c3cc(Cl)c(NC(=O)c4ccnn(-c5ccc(F)cn5)c4=O)cc3F)c3nccn4nccc34)C2)n1`, for which the IC50 in data set [1] worked out at 97 nM; in data set [2], 12 nM; in data set [3], 21 nM; in [4] it was 479 nM; in data set [5], 125 nM; in [6], 13 nM. Besides, the efflux ratio at 2 h, 1 µM in [10] came to 1. In addition, the CLhep predicted at 2 µM is 5 mL/min/kg in data set [7] and 9 mL/min/kg in data set [8]. The Papp A→B at 2 h, 1 µM in data set [9] was determined as 6 ×10⁻⁶ cm/s.

Regarding `Cn1ccc([C@H]2C[C@H](N(c3cc(F)c(NC(=O)c4ccnn(-c5ccc(F)cn5)c4=O)cc3F)c3cccn4nccc34)C2)n1`, the IC50 in [1] was 20 nM; in data set [3], 5 nM; in data set [4] it was 36 nM; in data set [5], 12 nM; in data set [6], 4 nM. Also, the CLhep predicted at 2 µM in data set [7] is 21 mL/min/kg; in data set [8], 77 mL/min/kg. Besides, the apical-to-basolateral permeability (Papp A→B) at 2 h, 1 µM in [9] turned out to be 5 ×10⁻⁶ cm/s.

Regarding `CO[C@H]1C[C@@H](N(c2cc(F)c(NC(=O)c3ccnn(-c4ccc(F)cn4)c3=O)cc2F)c2cccn3nccc23)C1`, the IC50 in [1] was determined as 39 nM; in [2], 4 nM; in data set [3], 7 nM; in [4], 171 nM; in data set [5], 46 nM; in data set [6] it was 6 nM.

Take `CCN(c1cc(F)c(NC(=O)c2ccnn(-c3ccc(F)cc3)c2=O)cc1F)c1cccn2nccc12`: the IC50 is 198 nM in data set [1]; 36 nM in [2]; 64 nM in [3]; 622 nM in [4]; 172 nM in data set [5]; 38 nM in [6].

Take `Cc1cc2c(N(c3cc(F)c(NC(=O)c4ccnn(-c5ccc(F)cn5)c4=O)cc3F)[C@H]3C[C@H](c4ccn(C)n4)C3)nccn2n1`: the IC50 was > 5000 nM in data set [1]; 397 nM in data set [2]; 1770 nM in data set [3]; 5000 nM in data set [4]; 758 nM in [6]. Further, the efflux ratio at 2 h, 1 µM in data set [10] was determined as 0.9.

In the case of `Cc1cc(N(c2nccn3nccc23)[C@H]2C[C@H](c3ccn(C)n3)C2)c(F)cc1NC(=O)c1ccnn(-c2ccc(F)cn2)c1=O`, the IC50 in data set [1] is 41 nM; in [3], 10 nM; in data set [4] it was 217 nM; in data set [5] it was 64 nM; in data set [6] it was 5 nM. Further, in data set [10], the efflux ratio at 2 h, 1 µM was 0.9. The CLhep predicted at 2 µM was 22 mL/min/kg in data set [7] and 17 mL/min/kg in data set [8]. Also, the Papp A→B at 2 h, 1 µM in data set [9] turned out to be 4 ×10⁻⁶ cm/s.

Take `COCCNCc1ccc(-c2cc3nccc(Oc4ccc(NC(=S)NC(=O)Cc5ccc(F)cc5)cc4F)c3s2)nc1` [GLESATINIB]: the IC50 in data set [11] was found to be 172 nM.

Consider `O=C(Nc1cc(F)c(N(c2cccn3nccc23)C2CCC2)cc1F)c1ccnn(-c2ccc(F)cc2)c1=O`, for which the IC50 amounted to 158 nM in [1]; 16 nM in data set [2]; 24 nM in [3]; 222 nM in data set [4]; 57 nM in [5]; 30 nM in data set [6].

As for `Cn1ccc([C@H]2C[C@H](N(c3cc(C(F)F)c(NC(=O)c4ccnn(-c5ccc(F)cn5)c4=O)cc3F)c3nccn4nccc34)C2)n1`, the IC50 was found to be 519 nM in [1]; 13 nM in [2]; 79 nM in [3]; 3280 nM in data set [4]; 942 nM in data set [5]; 32 nM in data set [6].

Take `Cn1ccc([C@H]2C[C@H](N(c3cc(F)c(NC(=O)c4ccnn(-c5ccc(F)cn5)c4=O)cc3Cl)c3nccn4nccc34)C2)n1`: the IC50 in data set [1] stood at 28 nM; in data set [2], 6 nM; in data set [3], 9 nM; in [4], 147 nM; in data set [5], 36 nM; in data set [6] it was 7 nM. Further, the CLhep predicted at 2 µM was 9 mL/min/kg in [7] and 31 mL/min/kg in data set [8]. Besides, the Papp A→B at 2 h, 1 µM in [9] stood at 5 ×10⁻⁶ cm/s.

For `Cc1cc(N(c2cc(F)c(NC(=O)c3ccnn(-c4ccc(F)cn4)c3=O)cc2F)[C@H]2C[C@H](c3ccn(C)n3)C2)c(F)cn1`, the 50% inhibitory concentration (IC50) in [1] is 40 nM; in data set [3] it was 6 nM; in data set [4] it was 98 nM; in [5] it was 36 nM; in [6], 5 nM. Besides, the CLhep predicted at 2 µM is 9 mL/min/kg in [7] and 31 mL/min/kg in [8]. Besides, the Papp A→B at 2 h, 1 µM in data set [9] is 15 ×10⁻⁶ cm/s.

Take `CC(C)(C#N)CN(c1cc(F)c(NC(=O)c2ccnn(-c3ccc(F)cc3)c2=O)cc1F)c1cccn2nccc12`: the IC50 was 25 nM in data set [1]; 8 nM in data set [3]; 326 nM in [4]; 53 nM in data set [5]; 7 nM in data set [6].

Turning to `CC(C)(C#N)CN(c1cc(F)c(NC(=O)c2ccnn(-c3ccc(F)cn3)c2=O)cc1F)c1cccn2nccc12`, the IC50 in data set [1] turned out to be 57 nM; in data set [2], 3 nM; in data set [3] it was 5 nM; in [4], 96 nM; in data set [5] it was 39 nM; in data set [6], 2 nM.

With `Cn1ccc(CCN(c2cc(F)c(NC(=O)c3ccnn(-c4ccc(F)cn4)c3=O)cc2F)c2cccn3nccc23)n1`, the IC50 in data set [1] is 25 nM; in data set [3], 4 nM; in data set [4], 58 nM; in data set [5] it was 19 nM; in data set [6] it was 2 nM.

`O=C(Nc1cc(F)c(Oc2cccn3nccc23)cc1F)c1ccnn(-c2ccc(F)cc2)c1=O`: the IC50 stood at 1680 nM in data set [1]; 27 nM in data set [2]; 165 nM in [3]; 5000 nM in data set [4]; 717 nM in data set [5]; 84 nM in data set [6].
